Where two headings read alike, the source gives them in different places.
Legend:
SK-MEL-28 = conditions: for TGI: SK-MEL-28
NCI-H226 = conditions: for TGI: NCI-H226
RXF 393 = conditions: for TGI: RXF 393
BT-549 = conditions: for TGI: BT-549
SK-MEL-5 = conditions: for TGI: SK-MEL-5
OVCAR-3 = conditions: for TGI: OVCAR-3
IGROV1 = conditions: for TGI: IGROV1
HCT-15 = conditions: for TGI: HCT-15
MDA-MB-468 = conditions: for TGI: MDA-MB-468
SW-620 = conditions: for TGI: SW-620
SNB-75 = conditions: for TGI: SNB-75
K-562 = conditions: for TGI: K-562
HCT-116 = conditions: for TGI: HCT-116
HOP-92 = conditions: for TGI: HOP-92

## CCCn1cc(C=NN=C2C(=O)Nc3ccc(C)cc32)c2ccccc21 [Compound 8a]
MOLT-4; MOLT-4
  GI50: 0.68 µM
  TGI: 4.54 µM
MOLT-4; MOLT-4, 10 μM
  GI %: 110%
MOLT-4; MOLT-4, 1.00E-5 Molar
  Growth Percent: -9.90%
MOLT-4; MOLT-4, listed as D - 795311 / 1
  TGI: 4.54E-6 Molar
SK-MEL-28
  TGI: 36.9 µM
SK-MEL-28; SK-MEL-28, 10 μM
  GI %: 41%
SK-MEL-28; SK-MEL-28, 1.00E-5 Molar
  Growth Percent: 59.40%
SK-MEL-28; listed as D - 795311 / 1
  TGI: 3.69E-5 Molar
NCI-H226
  TGI: 20.6 µM
NCI-H226; NCI-H226, 1.00E-5 Molar
  Growth Percent: 92.04%
NCI-H226; listed as D - 795311 / 1
  TGI: 2.06E-5 Molar
RXF 393
  TGI: 7.94 µM
RXF 393; RXF 393, 10 μM
  GI %: 89%
RXF 393; RXF 393, 1.00E-5 Molar
  Growth Percent: 11.38%
RXF 393; listed as D - 795311 / 1
  TGI: 7.94E-6 Molar
UO-31; UO-31, 10 μM
  GI %: 40%
UO-31; UO-31, 1.00E-5 Molar
  Growth Percent: 60.00%
UO-31; UO-31, listed as D - 795311 / 1
  TGI: 6.18E-5 Molar
BT-549
  TGI: 6.33 µM
BT-549; BT-549, 10 μM
  GI %: 37%
BT-549; BT-549, 1.00E-5 Molar
  Growth Percent: 63.53%
BT-549; listed as D - 795311 / 1
  TGI: 6.33E-6 Molar
SK-MEL-5
  TGI: 13.50 µM
SK-MEL-5; SK-MEL-5, 10 μM
  GI %: 51%
SK-MEL-5; SK-MEL-5, 1.00E-5 Molar
  Growth Percent: 49.07%
SK-MEL-5; listed as D - 795311 / 1
  TGI: 1.35E-5 Molar
SK-MEL-5; human, 48 h
  CC50: 39 µM
OVCAR-3
  TGI: 5.11 µM
OVCAR-3; OVCAR-3, 10 μM
  GI %: 98%
OVCAR-3; OVCAR-3, 1.00E-5 Molar
  Growth Percent: 2.10%
OVCAR-3; listed as D - 795311 / 1
  TGI: 5.11E-6 Molar
IGROV1
  TGI: 63.10 µM
IGROV1; IGROV1, 10 μM
  GI %: 61%
IGROV1; IGROV1, 1.00E-5 Molar
  Growth Percent: 39.38%
IGROV1; listed as D - 795311 / 1
  TGI: 6.31E-5 Molar
MALME-3M
  TGI: 6.03 µM
MALME-3M; 10 μM
  GI %: 49%
MALME-3M; 1.00E-5 Molar
  Growth Percent: 51.68%
MALME-3M; listed as D - 795311 / 1
  TGI: 6.03E-6 Molar
HCT-15
  TGI: 42.2 µM
HCT-15; HCT-15, 10 μM
  GI %: 77%
HCT-15; HCT-15, 1.00E-5 Molar
  Growth Percent: 23.04%
HCT-15; listed as D - 795311 / 1
  TGI: 4.22E-5 Molar
SN12C
  TGI: 75.90 µM
SN12C; 10 μM
  GI %: 51%
SN12C; 1.00E-5 Molar
  Growth Percent: 49.93%
SN12C; listed as D - 795311 / 1
  TGI: 7.59E-5 Molar
MDA-MB-468
  TGI: 5.78 µM
MDA-MB-468; MDA-MB-468, 10 μM
  GI %: 75%
MDA-MB-468; MDA-MB-468, 1.00E-5 Molar
  Growth Percent: 25.19%
MDA-MB-468; listed as D - 795311 / 1
  TGI: 5.78E-6 Molar
SW-620
  TGI: 35.3 µM
SW-620; SW-620, 10 μM
  GI %: 64%
SW-620; SW-620, 1.00E-5 Molar
  Growth Percent: 36.69%
SW-620; listed as D - 795311 / 1
  TGI: 3.53E-5 Molar
SNB-75
  TGI: 46.0 µM
SNB-75; SNB-75, 10 μM
  GI %: 15%
SNB-75; SNB-75, 1.00E-5 Molar
  Growth Percent: 85.63%
SNB-75; listed as D - 795311 / 1
  TGI: 4.60E-5 Molar
HS 578T
  TGI: >100 µM
HS 578T; 10 μM
  GI %: 26%
HS 578T; 1.00E-5 Molar
  Growth Percent: 74.02%
HS 578T; listed as D - 795311 / 1
  TGI: > 1.00E-4 Molar
K-562
  TGI: 20.5 µM
K-562; K-562, 10 μM
  GI %: 83%
K-562; K-562, 1.00E-5 Molar
  Growth Percent: 17.61%
K-562; listed as D - 795311 / 1
  TGI: 2.05E-5 Molar
NCI/ADR-RES
  TGI: 89.90 µM
NCI/ADR-RES; 10 μM
  GI %: 24%
NCI/ADR-RES; 1.00E-5 Molar
  Growth Percent: 76.32%
NCI/ADR-RES; listed as D - 795311 / 1
  TGI: 8.99E-5 Molar
HCT-116
  TGI: 4.17 µM
HCT-116; HCT-116, 10 μM
  GI %: 60%
HCT-116; HCT-116, 1.00E-5 Molar
  Growth Percent: 39.85%
HCT-116; listed as D - 795311 / 1
  TGI: 4.17E-6 Molar
HCT-116; human, 48 h
  CC50: 9.96 µM
HOP-92
  TGI: 6.57 µM
HOP-92; HOP-92, 10 μM
  GI %: 63%
HOP-92; HOP-92, 1.00E-5 Molar
  Growth Percent: 37.42%
HOP-92; listed as D - 795311 / 1
  TGI: 6.57E-6 Molar
HL-60(TB); HL60(TB)
  TGI: 4.80 µM
HL-60(TB); HL-60(TB)
  TGI: 4.80E-6 Molar
HL-60(TB); HL-60(TB), 10 μM
  GI %: 123%
HL-60(TB); HL-60(TB), 1.00E-5 Molar
  Growth Percent: -22.61%

Reference: publication PMC7717600, “Novel [(N-alkyl-3-indolylmethylene)hydrazono]oxindoles arrest cell cycle and induce cell apoptosis by inhibiting CDK2 and Bcl-2: synthesis, biological evaluation and in silico studies” (Journal of Enzyme Inhibition and Medicinal Chemistry, 2020)
